Here are results for one compound from patent US20230096601A1, “BORTEZOMIB COMPOSITIONS” (MAIA Pharmaceuticals, Inc., priority 2021, published 2023).

≈ marks a conversion by molar mass, not a printed value.

For data set [1] the following is noted: cited from earlier work.
A short description of another data set: physchem. The settings on record: thermodynamic from solid.
Data set [2] is described as follows: Formulation trials with low concentrations of benzyl alcohol / DMSO in water: visual dissolution and physical stability. The class given is physicochemical. Particulars: benzyl alcohol (2% v/v), DMSO (5% v/v) or combination added to bortezomib, then water; mixing >3 hours. Here is the method: Initial formulation experiments with low concentrations of various non-aqueous solvents were conducted targeting a bortezomib concentration of 2.5 mg/mL. Attempts to solubilize bortezomib were conducted using low concentrations of benzyl alcohol (2% v/v), or dimethyl sulfoxide (5% v/v), or a combination of these solvents. […] For these formulations, the non-aqueous solvent was added to bortezomib to dissolve it, followed by addition of water to the bortezomib-solvent mixture.
Various concentrations of DMSO were explored as the non-aqueous component of the formulation (2% v/v to 5% v/v in water). Bortezomib was first completely dissolved in the batch volume of DMSO to form a concentrated “premix” solution prior to making up the batch to the target concentration (2.5 mg/mL) with water. This was done to facilitate the subsequent dissolution of bortezomib in the aqueous component.

Data set [3] is described as follows: Accelerated / room temperature stability testing at 25° C./60% RH, HPLC assay and impurities (percent of nominal bortezomib concentration). The class given is physicochemical. Here is the method: The compositions described herein are storage stable aqueous liquid ready-to-use compositions. The degradation of the active ingredient, as well as the formation of various impurities is controlled by the composition to a minimal level. Stability testing was performed at the long-term stability condition (2-8° C.) as well as the accelerated stability condition (25±2° C./60±5% RH) for refrigerated products. At each time point, the bortezomib content (assay) and the impurity profile was determined using an HPLC procedure, and a bortezomib reference standard. The HPLC method utilizes a reverse phase column with an aqueous formic acid/acetonitrile and aqueous formic acid/methanol mobile phase gradient and UV/PDA detector at a wavelength of about 270 nm.
The effect of pH on bortezomib formulations using a low concentration of DMSO in water (4.5% v/v DMSO for the 2.5 mg/mL strength and 1% v/v DMSO for the 1 mg/mL strength) was then assessed. In each case, the bortezomib was first fully dissolved in the batch quantity of DMSO to form a concentrated premix solution, which was then added to water, and the pH adjusted with sodium hydroxide and/or hydrochloric acid to pH ranging from 4 to 8.5. […] Because oxidative degradation is a significant degradation pathway for bortezomib, filled vials were overlayed with nitrogen. These batches were placed on stability at accelerated (25° C.) and long-term storage conditions (2-8° C.). […] Although the 2.5 mg/mL formulations were not physically stable at 25° C., chemical stability, based on analysis after 2 months at 25° C., stability was poor at pH 4 and pH 8.5 for both strengths, with good stability being observed at pH 5.5 for the 2.5 mg/mL strength and pH 5.5 and 7 for the 1 mg/mL strength.
The preparation of the concentrated bortezomib premix is performed. The batch quantity of bortezomib is added to a suitable glass container. The batch quantity of the non-aqueous solvent is then added to the bortezomib, and mixed until the bortezomib is completely dissolved. The initial aqueous component is separately prepared by dissolving the other excipients such as buffer, optionally a solubilizer and/or stabilizer, or a tonicity adjuster, in water for injection, which optionally has been degassed by sparging nitrogen through it and adjusting to the desired pH using appropriate pH adjusting agent, if needed. The aqueous component is typically prepared at about double the corresponding concentration(s) in the final formulation; this was typically accomplished by dissolving the excipients in approximately half the batch volume of water. The bortezomib premix is then added to the (concentrated) aqueous component, and mixed. Water is then added to make up to about 80-90% of the batch volume and a final pH adjustment is performed to the target pH using appropriate pH adjusting agent, if needed. After final pH adjustment, the batch is made up to the target batch volume. The batch is then sterile filtered using a 0.2 micron filter, filled into (2-mL, or 3-mL, or 5-mL) USP Type I, optionally amber, glass vials, stoppered with (13-mm or 20-mm) fluoropolymer-coated chlorobutyl rubber stoppers, and sealed with (13-mm or 20-mm) aluminum caps. The fill volume used is typically 3.5 mL for the 1 mg/mL formulations or 1.4 mL for the 2.5 mg/mL formulations (to contain 3.5 mg bortezomib per vial). Because bortezomib is known to be oxidation and light sensitive, compounding and filling is typically carried out in a glove box equilibrated with nitrogen at various residual oxygen levels (typically less than 5%). Light exposure is minimized.
The stability testing under accelerated conditions (25° C. and 60% relative humidity for at least 6 months) of these formulations is presented in Table 6.

The nature of data set [4]: Equilibrium solubility by HPLC, bortezomib added directly to solvent system. It is filed as physicochemical. Particulars: buffered aqueous solutions, aqueous buffer, thermodynamic from solid; pH range of 4 to 7.
Method: Because pH appeared to influence chemical stability, sodium acetate or sodium phosphate were included in these matrixes as buffers, and the effect of pH on solubility was also assessed.
The components were mixed (by shaking the glass container), and the mixture was observed. […] The suspension was allowed to equilibrate for 24 hours at room temperature while being protected from light. After the incubation, the solution phase was removed from the container into a clean vial by filtration through a 0.45 micron syringe filter, and the filtrate was assayed for bortezomib content using an HPLC procedure, and a bortezomib standard.
A short description of data set [5]: Solubility by HPLC, bortezomib premixed with nonaqueous solvent before addition to aqueous component. The class given is physicochemical. The settings on record: aqueous with cosolvent or surfactant or cyclodextrin, kinetic from dmso stock; premix in non-aqueous solvent, aqueous system with 25 mg/mL mannitol.
Method: This example was carried out to determine the solubility of bortezomib in particular solvents and solvent systems when the bortezomib is first dissolved in (the batch quantity) of a non-aqueous solvent to form a concentrated solution (“premix”), prior to adding the premix to the aqueous component(s). A bortezomib sample (between 10 and 50 mg) was placed in a suitable glass container and added to a defined volume of a nonaqueous solvent system (if used) as defined below in Table 4, to create a concentrated premix. The premix was subsequently added to enough buffered aqueous solvent to make a final volume of 5 mL, as defined below in Table 4.
The resulting formulation was allowed to equilibrate for 24 hours at room temperature, protected from light. Solubility was determined by filtration through a 0.45 micron filter, and assay of the filtrate for bortezomib content using an HPLC procedure, and a bortezomib standard. One mL aliquots of the filtrate (saturated solution) were subjected to three freeze-thaw cycles of 24 hours at −20° C. and 24 hours at 25° C. each, with visual examination after each cycle. Absence of precipitation after the three cycles was used as an index of physical stability of the formulation upon long-term storage.

The solubility is how much of the substance goes into solution per volume.

Method for physchem: The solubility of bortezomib in select non-aqueous solvents was determined to understand if any of these solvents may be useful (as a co-solvent with water) at low concentrations in the final formulation.
Approximately 25 mg of bortezomib was added to a suitable container. An initial volume of 0.5 mL of the non-aqueous solvent was added and the mixture stirred for 5 minutes. The appearance of the solution was recorded. […] If the bortezomib was not fully dissolved, additional volume of solvents were added in 0.25 mL increments with mixing for 5 minutes after each addition, and recording the appearance of the solution, until the bortezomib was fully dissolved, up to a total volume of 10 mL.

Regarding `CC(C)C[C@H](NC(=O)[C@H](Cc1ccccc1)NC(=O)c1cnccn1)B(O)O` [Bortezomib, [(1R)-3-methyl-1-[[(2S)-1-oxo-3-phenyl-2-[(pyrazinylcarbonyl)amino]propyl]amino]butyl] boronic acid], in data set [1], the “solubility of bortezomib in water or buffered aqueous solutions reported by the suppliers” value is less than 100 µg/mL. Moreover, the solubility at 5 min in the data set “physchem” (N-methyl pyrrolidone (NMP), organic solvent or mixture) is greater than 25000 µg/mL; in the data set “physchem” (benzyl alcohol, organic solvent or mixture), greater than 50000 µg/mL; in “physchem” (dimethyl sulfoxide (DMSO), organic solvent or mixture) it was greater than 50000 µg/mL; in the data set “physchem” (ethanol, organic solvent or mixture) it was roughly 4500 µg/mL (≈ 11.7 mM); in the data set “physchem” (glycerol, organic solvent or mixture) it was less than 2500 µg/mL; in “physchem” (polyethylene glycol 400, organic solvent or mixture) it was less than 2500 µg/mL. Besides, the solubility at 5 min in “physchem” (propylene glycol, organic solvent or mixture) is roughly 3600 µg/mL (≈ 9.37 mM). The “dissolution at target 2.5 mg/mL” value in data set [2] is recorded as “precipitated after addition of water”. Moreover, the “Total Impurities after 2 months at 25° C. (%)” value in data set [3] (1 mg/mL bortezomib, 1% (v/v) DMSO in water, pH 4) amounted to 7.83%; in data set [3] (1 mg/mL bortezomib, 1% (v/v) DMSO in water, pH 5.5), 0.52%; in data set [3] (1 mg/mL bortezomib, 1% (v/v) DMSO in water, pH 7), 1.18%; in data set [3] (1 mg/mL bortezomib, 1% (v/v) DMSO in water, pH 8.5) it was 12.48%; in data set [3] (2.5 mg/mL bortezomib, […] (v/v) DMSO in water, pH 4), 13.71%; in data set [3] (2.5 mg/mL bortezomib, […] (v/v) DMSO in water, pH 5.5), 1.07%. Moreover, the “Total Impurities after 2 months at 25° C. (%)” value in data set [3] (2.5 mg/mL bortezomib, […] (v/v) DMSO in water, pH 7) stood at 5.91%; in data set [3] (2.5 mg/mL bortezomib, […] (v/v) DMSO in water, pH 8.5), 31.59%. Besides, the values for the solubility at 24 h in data set [4] and in data set [5] were less than 500 µg/mL and greater than 4000 µg/mL, respectively.
